Test results taken from US10238631B2, “Sesquiterpene derivatives and their use in inflammation or cancer treatment” (Academia Sinica, priority 2014, dated 2019).
Like-named read-outs stand apart in the source and are kept apart here.

Assays:
[1] = test system: Melanocyte (Normal cells); assay: MTT cell viability assay, normal melanocytes; format: cell-based, human; conditions: Homo sapiens, Melanocyte, 24 h
Method: (§1) Normal or cancer cells (2×10^3 to 1×10^4 cells/well) were seeded in 96-well plate for overnight and treated with different compounds for 24 h to 72 h. Cells growth were determined by MTT-based colorimetric assays according to. Viability of the test cells treated with vehicle (0.5% DMSO) only was defined as 100% viable. Survival of cells after treatment with DETDs was calculated using the following formula: viable cell number (%)=OD570 (treated cell culture)/OD570 (vehicle control)×100.
(§2) Several genes are involved in melanoma development and pathology; specifically, mutation in V-raf murine sarcoma viral oncogene homolog B1 (B-RAF) occurs approximately 50-60% and in neuroblastoma RAS viral oncogene homolog (N-RAS) occurs about 30% of malignant melanomas. A spectrum of wild-type or mutated melanoma cell lines including B16-F10, MeWo, A375, A2058, HTB-68, and melanocyte were used to study anti-melanoma cell proliferation activity of parental phytocompound DET and newly synthesized DETDs.

A375 (BRAF mutation) = assay: MTT cell viability assay, A375 melanoma; format: cell-based, human; conditions: Homo sapiens, A-375, 24 h, read-out: IC50 on cell viability, A375 (BRAF mutation)
Method: as §1, §2
To investigate whether or not DETD-35 show synergism with PLX4032 against A375 melanoma cells, we performed anti-proliferation assay using MTT reagent to obtain IC50 of each compound. […] The synergistic effect was quantified by combination index (CI) analysis as stated above.

A2058 (BRAF mutation) = assay: MTT cell viability assay, A2058 melanoma; format: cell-based, human; conditions: Homo sapiens, A2058, 24 h
Method: as §1, §2

[2] = test system: RAW264.7 (normal macrophage); assay: MTT cell viability assay, RAW264.7 macrophages; format: cell-based, mouse; conditions: Mus musculus, RAW264.7, 24 h
Method: as §1
(§3) Marcophages (2×10^5 cells/well in 96-well plate) were treated with compounds for 1 h, then incubated further for 24 h with or without the presence of […] LPS in the cultural medium. Nitrite levels in cell culture medium were determined by the Griess reaction method. In parallel to the Griess assays, macrophage cell viabilities were determined using the MTT based colorimetric assay.

HTB-68 (NRAS mutation) = assay: MTT cell viability assay, HTB-68 melanoma; format: cell-based, human; conditions: Homo sapiens, 24 h
Method: as §1, §2

[3] = test system: LPS-induced nitric oxide (NO) production in RAW 264.7 cells; assay: Nitric oxide production in LPS-stimulated macrophages (Griess); format: cell-based, mouse; conditions: Mus musculus; LPS-stimulated RAW264.7, nitrite 24 h after LPS
Method: as §3
LPS from the outer membrane of Gram-negative bacteria can induce mRNA or protein levels of inducible nitric oxide synthase (iNOS), which catalyzes oxidative deamination of L-arginine to produce nitric oxide (NO). Once NO is predominantly produced, it interacts with superoxide anion and generates highly reactive oxidants resulting in cellular inflammation, DNA, protein and tissue damages, carcinogenesis, and antiapoptosis. We used in vitro LPS stimulated inflammation in RAW264.7 cell system to evaluate the effect of DET and its derivatives DETDs on NO production by determination of nitrite level (equivalent to NO level) in culture medium 24 h after LPS treatment.

[4] = test system: TS/A (ER+, Her2−) murine mammary cancer cells; assay: MTT cell viability assay, TS/A cells; format: cell-based; conditions: Mus musculus, 24 h, read-out: IC50 on cell viability, TS/A (ER+, Her2−)
Method: as §1
(§4) Sixty DETDs were derived from parental compound […] and tested for anti-breast cancer cell activity.

[5] = test system: MCF-7 (ER+, Her2−) human breast cancer cells; assay: MTT cell viability assay, MCF-7 cells; format: cell-based; conditions: MCF7, 24 h, read-out: IC50 on cell viability, MCF-7 (ER+, Her2−)
Method: as §1, §4

B16-F10 (NRAS mutation) = assay: MTT cell viability assay, B16-F10 melanoma; format: cell-based; conditions: Mus musculus, B16-F10, 24 h, read-out: IC50 on cell viability, B16-F10 (NRAS mutation)
Method: as §1, §2

[6] = test system: MDA-MB-231 (ER−, PR−, Her2−) human breast cancer cells; assay: MTT cell viability assay, MDA-MB-231 cells; format: cell-based; conditions: Homo sapiens, MDA-MB-231, 24 h, read-out: IC50 on cell viability, MDA-MB-231 (ER−, PR−, Her2−)
Method: as §1, §4

[7] = test system: MeWo (No NRAS or BRAF mutation); assay: MTT cell viability assay, MeWo melanoma; format: cell-based, human; conditions: Homo sapiens, MeWo, 24 h
Method: as §1, §2

[8] = test system: M10 normal mammary epithelial cells; assay: MTT cell viability assay, M10 normal cells; format: cell-based, human; conditions: Homo sapiens, Epithelial cell, 24 h
Method: as §1, §4

Structure (SMILES): C=C1C(=O)OC2CC3=C[C@@H](C/C(C)=C/C(OC(=O)/C=C/c4ccc(C)cc4)[C@H]12)OC3=O (stereo partly drawn) [DETD-27]
- IC50 [1]: > 10 µM
- IC50 (A375 (BRAF mutation); 24 h, MTT): > 10 µM
- IC50 (A2058 (BRAF mutation)): > 10 µM
- IC50 [2]: > 10 µM
- IC50 (HTB-68 (NRAS mutation)): > 10 µM
- IC50 [3]: 1.9 µM
- IC50 [4]: 2.4 µM
- IC50 [5]: 3.7 µM
- IC50 (B16-F10 (NRAS mutation); 24 h): 4.8 µM
- IC50 [6]: 3.6 µM
- IC50 [7]: > 10 µM
- IC50 [8]: > 7.5 µM

Structure (SMILES): C=C1C(=O)OC2CC3=C[C@@H](C/C(C)=C/C(OC(=O)/C=C/c4ccco4)[C@H]12)OC3=O (stereo partly drawn) [DETD-29]
- IC50 [1]: > 10 µM
- IC50 (A375 (BRAF mutation); 24 h, MTT): > 10 µM
- IC50 (A2058 (BRAF mutation)): > 10 µM
- IC50 [2]: > 10 µM
- IC50 (HTB-68 (NRAS mutation)): > 10 µM
- IC50 [3]: 1.6 µM
- IC50 [4]: 2.2 µM
- IC50 [5]: 4.1 µM
- IC50 (B16-F10 (NRAS mutation); 24 h): 6.7 µM
- IC50 [6]: 4.9 µM
- IC50 [7]: > 10 µM
- IC50 [8]: > 7.5 µM

Structure (SMILES): C=C1C(=O)OC2CC3=C[C@@H](C/C(C)=C/C(OC(=O)c4ccccc4)[C@H]12)OC3=O (stereo partly drawn) [DETD-31]
- IC50 [1]: > 10 µM
- IC50 (A375 (BRAF mutation); 24 h, MTT): 4.3 µM
- IC50 (A2058 (BRAF mutation)): > 10 µM
- IC50 [2]: > 10 µM
- IC50 (HTB-68 (NRAS mutation)): > 10 µM
- IC50 [3]: 3.2 µM
- IC50 [4]: 2 µM
- IC50 [5]: 5.9 µM
- IC50 (B16-F10 (NRAS mutation); 24 h): 2.9 µM
- IC50 [6]: 4.5 µM
- IC50 [7]: > 10 µM
- IC50 [8]: > 7.5 µM

Structure (SMILES): C=C1C(=O)OC2CC3=C[C@@H](C/C(C)=C/C(OC(=O)C4CC4)[C@H]12)OC3=O (stereo partly drawn) [DETD-36]
- IC50 [1]: > 10 µM
- IC50 (A375 (BRAF mutation); 24 h, MTT): 9.2 µM
- IC50 (A2058 (BRAF mutation)): > 10 µM
- IC50 [2]: > 10 µM
- IC50 (HTB-68 (NRAS mutation)): > 10 µM
- IC50 [3]: 1.8 µM
- IC50 [4]: 2.4 µM
- IC50 [5]: 7.1 µM
- IC50 (B16-F10 (NRAS mutation); 24 h): 9.4 µM
- IC50 [6]: 8.7 µM
- IC50 [7]: > 10 µM
- IC50 [8]: > 7.5 µM

Structure (SMILES): C=C1C(=O)OC2CC3=C[C@@H](C/C(C)=C/C(OC(=O)C4CCCC4)[C@H]12)OC3=O (stereo partly drawn) [DETD-37]
- IC50 [1]: > 10 µM
- IC50 (A375 (BRAF mutation); 24 h, MTT): > 10 µM
- IC50 (A2058 (BRAF mutation)): > 10 µM
- IC50 [2]: > 10 µM
- IC50 (HTB-68 (NRAS mutation)): > 10 µM
- IC50 [3]: 2 µM
- IC50 [4]: 3 µM
- IC50 [5]: 6.2 µM
- IC50 (B16-F10 (NRAS mutation); 24 h): 3.8 µM
- IC50 [6]: 6.7 µM
- IC50 [7]: > 10 µM
- IC50 [8]: > 7.5 µM

Structure (SMILES): C=C1C(=O)OC2CC3=C[C@@H](C/C(C)=C/C(OC(=O)c4cc5ccccc5o4)[C@H]12)OC3=O (stereo partly drawn) [DETD-40]
- IC50 [1]: > 10 µM
- IC50 (A375 (BRAF mutation); 24 h, MTT): > 10 µM
- IC50 (A2058 (BRAF mutation)): > 10 µM
- IC50 [2]: > 10 µM
- IC50 (HTB-68 (NRAS mutation)): > 10 µM
- IC50 [3]: 4.5 µM
- IC50 [4]: 3.1 µM
- IC50 [5]: 6.1 µM
- IC50 (B16-F10 (NRAS mutation); 24 h): 4.3 µM
- IC50 [6]: 4.9 µM
- IC50 [7]: > 10 µM
- IC50 [8]: > 7.5 µM

Structure (SMILES): C=C1C(=O)OC2CC3=C[C@@H](C/C(C)=C/C(OC(=O)c4cc5ccccc5s4)[C@H]12)OC3=O (stereo partly drawn) [DETD-41]
- IC50 [1]: > 10 µM
- IC50 (A375 (BRAF mutation); 24 h, MTT): > 10 µM
- IC50 (A2058 (BRAF mutation)): > 10 µM
- IC50 [2]: > 10 µM
- IC50 (HTB-68 (NRAS mutation)): > 10 µM
- IC50 [3]: 3.5 µM
- IC50 [4]: 2.8 µM
- IC50 [5]: 5.3 µM
- IC50 (B16-F10 (NRAS mutation); 24 h): 5.5 µM
- IC50 [6]: 5 µM
- IC50 [7]: > 10 µM
- IC50 [8]: > 7.5 µM

Structure (SMILES): C=C1C(=O)OC2CC3=C[C@@H](C/C(C)=C/C(OC(=O)/C=C/c4cccs4)[C@H]12)OC3=O (stereo partly drawn) [DETD-42]
- IC50 [1]: > 10 µM
- IC50 (A375 (BRAF mutation)): > 10 µM
- IC50 (A2058 (BRAF mutation)): > 10 µM
- IC50 [2]: > 10 µM
- IC50 (HTB-68 (NRAS mutation)): > 10 µM
- IC50 [3]: 2.9 µM
- IC50 [4]: 2.7 µM
- IC50 [5]: 4.5 µM
- IC50 (B16-F10 (NRAS mutation)): 5.5 µM
- IC50 [6]: 6 µM
- IC50 [7]: > 10 µM
- IC50 [8]: > 7.5 µM

Structure (SMILES): C=C1C(=O)OC2CC3=C[C@@H](C/C(C)=C/C(OC(=O)Cc4ccccc4)[C@H]12)OC3=O (stereo partly drawn) [DETD-43]
- IC50 [1]: > 10 µM
- IC50 (A375 (BRAF mutation)): 3.6 µM
- IC50 (A2058 (BRAF mutation)): 8.7 µM
- IC50 [2]: > 10 µM
- IC50 (HTB-68 (NRAS mutation)): 8.2 µM
- IC50 [3]: 3.5 µM
- IC50 [4]: 2.4 µM
- IC50 [5]: > 7.5 µM
- IC50 (B16-F10 (NRAS mutation)): 7.4 µM
- IC50 [6]: 6.9 µM
- IC50 [7]: > 10 µM
- IC50 [8]: > 7.5 µM

Structure (SMILES): C=C1C(=O)OC2CC3=C[C@@H](C/C(C)=C/C(OC(=O)Cc4ccc(OC)cc4)[C@H]12)OC3=O (stereo partly drawn) [DETD-44]
- IC50 [1]: > 10 µM
- IC50 (A375 (BRAF mutation); 24 h, MTT): 3.5 µM
- IC50 (A2058 (BRAF mutation)): 8.5 µM
- IC50 [2]: > 10 µM
- IC50 (HTB-68 (NRAS mutation)): 7.6 µM
- IC50 [3]: 3.4 µM
- IC50 [4]: 2.2 µM
- IC50 [5]: > 7.5 µM
- IC50 (B16-F10 (NRAS mutation); 24 h): 7.3 µM
- IC50 [6]: 7 µM
- IC50 [7]: > 10 µM
- IC50 [8]: > 7.5 µM

Structure (SMILES): C=C1C(=O)OC2CC3=C[C@@H](C/C(C)=C/C(OC(=O)Cc4ccc5cc(OC)ccc5c4)[C@H]12)OC3=O (stereo partly drawn) [DETD-46]
- IC50 [1]: > 10 µM
- IC50 (A375 (BRAF mutation); 24 h, MTT): 2.6 µM
- IC50 (A2058 (BRAF mutation)): 5 µM
- IC50 [2]: > 10 µM
- IC50 (HTB-68 (NRAS mutation)): 4.5 µM
- IC50 [3]: 3.1 µM
- IC50 [4]: 3.8 µM
- IC50 [5]: > 7.5 µM
- IC50 (B16-F10 (NRAS mutation); 24 h): 5.4 µM
- IC50 [6]: 7.3 µM
- IC50 [7]: 6.3 µM
- IC50 [8]: > 7.5 µM

Structure (SMILES): C=C1C(=O)OC2CC3=C[C@@H](C/C(C)=C/C(OC(=O)/C=C/c4cccc(OC(F)(F)F)c4)[C@H]12)OC3=O (stereo partly drawn) [DETD-47]
- IC50 [1]: > 10 µM
- IC50 (A375 (BRAF mutation); 24 h, MTT): 8.3 µM
- IC50 (A2058 (BRAF mutation)): > 10 µM
- IC50 [2]: > 10 µM
- IC50 (HTB-68 (NRAS mutation)): > 10 µM
- IC50 [3]: > 10 µM
- IC50 [4]: > 7.5 µM
- IC50 [5]: > 7.5 µM
- IC50 (B16-F10 (NRAS mutation); 24 h): > 10 µM
- IC50 [6]: > 15 µM
- IC50 [7]: > 10 µM
- IC50 [8]: > 7.5 µM
